Assay results from ChEMBL document CHEMBL5634175, “Genome-Driven Discovery of Hygrocins in Streptomyces rapamycinicus” (2024).

What was measured:
Format in all cases: functional
Candida albicans = assay: Antifungal activity against Candida albicans IBT 656 incubated for 24 hrs by broth microdilution method
Staphylococcus aureus = assay: Antibacterial activity against Staphylococcus aureus 8325 incubated for 12 hrs by broth microdilution method
Bacillus subtilis = assay: Antibacterial activity against Bacillus subtilis incubated for 12 hrs by broth microdilution method
Pseudomonas aeruginosa = assay: Antibacterial activity against Pseudomonas aeruginosa PAO1 incubated for 12 hrs by broth microdilution method

Measured: MIC

CC[C@@H](/C=C/[C@H](OC(=O)/C(C)=C\[C@H]1C(=O)NC2=CC(=O)c3cc(O)c(C)cc3[C@@]21O)[C@H](C)O)CCC(=O)O
> 50 µg/mL: all assays above

CC[C@@H](/C=C/[C@H](OC(=O)/C(C)=C\C1=C2C(=CC(=O)c3cc(O)c(C)cc32)NC1=O)[C@H](C)O)CCC(=O)O
> 50 µg/mL: all assays above

CC[C@H]1/C=C/[C@@H]([C@@H](C)O)OC(=O)/C(C)=C\CC(=O)Nc2cc(O)cc3c2O[C@@]2(CC1)CC(=O)[C@@H](C)[C@@H]3O2
> 50 µg/mL: all assays above

CC[C@@H](/C=C/[C@H](O)[C@H](C)OC(=O)/C(C)=C\C1=C2C(=CC(=O)c3cc(O)c(C)cc32)NC1=O)CCC(=O)O
> 50 µg/mL: all assays above

CC[C@H]1/C=C/[C@H](O)[C@@H](C)OC(=O)/C(C)=C\CC(=O)Nc2cc(O)cc3c2O[C@@]2(CC1)CC(=O)[C@H](C)[C@H]3O2
> 50 µg/mL: all assays above

CC[C@@H](/C=C/[C@H](OC(=O)/C(C)=C\[C@@H]1C(=O)NC2=CC(=O)c3cc(O)c(C)cc3[C@]21O)[C@H](C)O)CCC(=O)O
> 50 µg/mL: all assays above

CC[C@@H](/C=C/[C@H](O)[C@H](C)OC(=O)/C(C)=C\[C@@H]1C(=O)NC2=CC(=O)c3cc(O)c(C)cc3[C@]21O)CCC(=O)O
> 50 µg/mL: all assays above
